One test concerns the target DYRK1A (Rattus norvegicus, UniProt Q63470). The test is described as follows: DYRK1A in vitro kinase assay (33P-ATP, Woodtide substrate). The class given is biochemical. On the procedure:
(§1) Buffer A: MgCl2 (10 mM), 1 mM ethylene glycol-bis(2-aminoethylether)-N,N,N',N'-tetraacetic acid (EGTA), 1 mM dithiothreitol (DTT), 25 mM Tris-HCl pH 7.5, 50 μg heparin/mL.
(§2) Controls were performed with appropriate dilutions of dimethylsulfoxide (DMSO). IC50 values were calculated from dose-response curves established by Sigma-Plots. The GSK-3, CK1, DYRK1A and CLK1 peptide substrates were obtained from Proteogenix (Oberhausbergen, France).
(§3) CDK5/p25. (Human, recombinant) was prepared as previously described. […] ATP (3000 Ci/mmol; 10 mCi/mL) in a final volume of 30 μL. After 30 min incubation at 30 °C, 25 μL aliquots of supernatant were spotted onto sheets of Whatman P81 phosphocellulose paper, and 20 s later, the filters were washed eight times (for at least 5 min each time) in a solution of 10 mL phosphoric acid/L of water. The wet filters were counted in the presence of 1 mL ACS (Amersham) scintillation fluid.

Another test deals with CK1δ/ε. Briefly: CK1δ/ε in vitro kinase assay (33P-ATP, CK1-specific peptide substrate). To be noted: 15 μM ATP, 30 min at 30 °C, triplicate; <50% inhibition at 10 µM reported as >10. The format is biochemical, Porcine. On the procedure:
as §2, §3
CK1δ/ε. (Porcine brain, native) was assayed as described for CDK5/p25, but using the CK1-specific peptide substrate […]pSAYSITA [23].

Another test addresses T1, CDK5/p25 (Homo sapiens, UniProt Q00535).
T1 construct: made in house
Briefly: CDK5/p25 in vitro kinase assay (33P-ATP, histone H1). The format is biochemical. The method, then: as §1, §2, §3

The target of another test is GSK-3α/β. Briefly: GSK-3α/β in vitro kinase assay (33P-ATP, GS-1 peptide). To be noted: 15 μM ATP, 30 min at 30 °C, triplicate; <50% inhibition at 10 µM reported as >10; read-out: GSK3 IC50. The class given is biochemical, Porcine. On the procedure:
as §1, §2, §3
GSK-3α/β. (Porcine brain, native) was assayed as described for CDK5/p25, but in buffer A and using a GSK-3 specific substrate (GS-1: […]pSEDEEE) (pS stands for phosphorylated serine).

[1] abbreviates: 15 μM ATP, 30 min at 30 °C, triplicate, <50% inhibition at 10 µM reported as >10.
Where [2] appears, read: 15 μM ATP, 30 min at 30 °C, triplicate, <50% inhibition at 10 µM reported as >10, read-out: CDK5 IC50.

Read-outs that look alike come from different tables or passages of the source.

T1 sequence (Q00535 whole entry): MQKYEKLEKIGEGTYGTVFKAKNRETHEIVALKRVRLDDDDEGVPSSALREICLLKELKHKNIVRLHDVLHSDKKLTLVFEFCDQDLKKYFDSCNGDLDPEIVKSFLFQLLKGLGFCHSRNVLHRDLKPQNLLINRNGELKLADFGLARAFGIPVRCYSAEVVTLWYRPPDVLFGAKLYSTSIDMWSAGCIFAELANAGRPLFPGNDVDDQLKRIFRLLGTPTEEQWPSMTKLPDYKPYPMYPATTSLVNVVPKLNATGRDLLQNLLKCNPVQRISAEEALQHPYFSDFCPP
T1 sequence (Q15078 99-307 partner limits assumed): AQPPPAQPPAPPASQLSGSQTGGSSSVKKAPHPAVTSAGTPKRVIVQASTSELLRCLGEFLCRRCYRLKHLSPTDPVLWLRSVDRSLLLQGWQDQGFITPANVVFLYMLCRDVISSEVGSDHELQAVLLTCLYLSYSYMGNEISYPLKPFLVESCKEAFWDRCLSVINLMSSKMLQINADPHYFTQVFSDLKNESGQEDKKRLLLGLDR

The term IC50 denotes the concentration needed to halve the response being measured. For `CCN(CC)CCNC(=N)c1nc2ccc3ncnc(Nc4ccc(Br)cc4F)c3c2s1` [Compound 9e, 9-(4-Bromo-2-fluorophenylamino)-N-(2-(diethylamino)ethyl)thiazolo[5,4-f]quinazoline-2-carboxi-midamide], the IC50 is more than 10 µM at DYRK1A (setting [1]), more than 10 µM on CK1δ/ε, more than 10 µM at CDK5/p25 (setting [2]) and 2.1 µM at GSK-3α/β.
In the case of `CCN(CC)CCNC(=N)c1nc2ccc3ncnc(Nc4ccc(OC)cc4)c3c2s1` [Compound 7e, N-(2-(Diethylamino)ethyl)-9-(4-methoxyphenylamino)thiazolo[5,4-f]quinazoline-2-carboximidamide], the IC50 at DYRK1A was 4 µM; on CK1δ/ε it was more than 10 µM; at CDK5/p25 (read-out: CDK5 IC50), more than 10 µM; on GSK-3α/β, 1.3 µM.
For `N=C(NCCN1CCCC1)c1nc2ccc3ncnc(Nc4ccc5c(c4)OCO5)c3c2s1` [Compound 8c, 9-(Benzo[d][1,3]dioxol-5-ylamino)-N-(2-(pyrrolidin-1-yl)ethyl)thiazolo[5,4-f]quinazoline-2-carboxi-midamide], the IC50 is 1.1 µM against DYRK1A (setting [1]), more than 10 µM against CK1δ/ε, more than 10 µM at CDK5/p25 (setting [2]) and 0.36 µM on GSK-3α/β.
Turning to `N=C(NCCN1CCOCC1)c1nc2ccc3ncnc(Nc4ccc(Br)cc4F)c3c2s1` [Compound 9a, 9-(4-Bromo-2-fluorophenylamino)-N-(2-morpholinoethyl)thiazolo[5,4-f]quinazoline-2-carboximid-amide], the half-maximal inhibitory concentration (IC50) against DYRK1A (setting [1]) was more than 10 µM; at CK1δ/ε it was more than 10 µM; at CDK5/p25 (setting [2]), more than 10 µM; on GSK-3α/β it was 1.8 µM.
Take `COc1ccc(Nc2ncnc3ccc4nc(C(=N)N(C)C)sc4c23)cc1` [Compound 7g, 9-(4-Methoxyphenylamino)-N,N-dimethylthiazolo[5,4-f]quinazoline-2-carboximidamide]: the IC50 was 0.7 µM at DYRK1A, more than 10 µM on CK1δ/ε, more than 10 µM at CDK5/p25 (read-out: CDK5 IC50) and 1.1 µM on GSK-3α/β.
On to `CN(C)C(=N)c1nc2ccc3ncnc(Nc4ccc(F)c(Cl)c4)c3c2s1` [Compound 10g, 9-(3-Chloro-4-fluorophenylamino)-N,N-dimethylthiazolo[5,4-f]quinazoline-2-carboximidamide], for which the IC50 was 6.5 µM against DYRK1A, more than 10 µM at CK1δ/ε, more than 10 µM at CDK5/p25 (read-out: CDK5 IC50) and 7.2 µM on GSK-3α/β.
On to `COC(=N)c1nc2ccc3ncnc(Nc4ccc(Br)cc4F)c3c2s1` [Compound 9i, Methyl 9-(4-bromo-2-fluorophenylamino)thiazolo[5,4-f]quinazoline-2-carbimidate], for which the concentration for half-maximal inhibition (IC50) was more than 10 µM against CK1δ/ε, more than 10 µM at CDK5/p25 (read-out: CDK5 IC50) and 0.16 µM on GSK-3α/β.
As to `COC(=N)c1nc2ccc3ncnc(Nc4ccc(F)c(Cl)c4)c3c2s1` [Compound 10i, Methyl 9-(3-chloro-4-fluorophenylamino)thiazolo[5,4-f]quinazoline-2-carbimidate], the IC50 on CDK5/p25 (read-out: CDK5 IC50) is more than 10 µM.
In the case of `COC(=N)c1nc2ccc3ncnc(Nc4ccc(OC)cc4)c3c2s1` [Compound 7i, Methyl 9-(4-methoxyphenylamino)thiazolo[5,4-f]quinazoline-2-carbimidate], the IC50 was more than 10 µM against CK1δ/ε, more than 10 µM on CDK5/p25 (read-out: CDK5 IC50) and 0.2 µM on GSK-3α/β.
On to `NC(=O)c1nc2ccc3ncnc(Nc4ccc(F)c(Cl)c4)c3c2s1` [Compound 10h, 9-(3-Chloro-4-fluorophenylamino)thiazolo[5,4-f]quinazoline-2-carboxamide], for which the IC50 is more than 10 µM against CK1δ/ε, more than 10 µM against CDK5/p25 and 0.66 µM on GSK-3α/β.
As for `COc1ccc(Nc2ncnc3ccc4nc(C(N)=O)sc4c23)cc1` [Compound 7h, 9-(4-Methoxyphenylamino)thiazolo[5,4-f]quinazoline-2-carboxamide], the IC50 was more than 10 µM on CK1δ/ε, more than 10 µM against CDK5/p25 and 0.3 µM at GSK-3α/β.
